Target: acetylcholine esterase AChE (Homo sapiens, UniProt P22303)
Assay: biochemical
Assay type: biochemical
Conditions: Ellman's method; for IC50: AChEI activity
Method: Acetylcholine esterase inhibitory activity of isolated compounds and their synthesized silver nanoparticles were assessed using Ellman’s method as previously prescribed.
Acetylcholine esterase inhibitory (AChEI) activity was assessed by using Ellman’s method.

Chain of acetylcholine esterase AChE (P22303 32-614): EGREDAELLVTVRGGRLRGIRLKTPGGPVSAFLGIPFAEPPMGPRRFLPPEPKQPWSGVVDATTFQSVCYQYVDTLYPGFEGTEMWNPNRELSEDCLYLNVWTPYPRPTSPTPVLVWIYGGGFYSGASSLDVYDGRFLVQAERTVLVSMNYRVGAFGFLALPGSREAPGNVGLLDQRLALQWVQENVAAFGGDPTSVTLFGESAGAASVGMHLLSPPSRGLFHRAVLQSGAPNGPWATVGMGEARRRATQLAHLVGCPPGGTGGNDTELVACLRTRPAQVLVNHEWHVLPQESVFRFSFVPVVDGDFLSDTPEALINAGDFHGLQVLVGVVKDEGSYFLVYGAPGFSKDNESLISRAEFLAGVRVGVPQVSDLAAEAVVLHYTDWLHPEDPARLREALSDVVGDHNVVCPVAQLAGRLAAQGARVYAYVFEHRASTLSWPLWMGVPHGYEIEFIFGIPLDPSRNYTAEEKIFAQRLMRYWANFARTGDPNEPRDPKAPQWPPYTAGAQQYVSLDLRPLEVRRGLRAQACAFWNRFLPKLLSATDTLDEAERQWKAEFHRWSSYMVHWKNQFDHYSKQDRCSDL

Compound	IC50	AChE inhibitory activity (in words)
COc1cc(OC)c2c(O)c3c(=O)cc(C)oc3cc2c1 [Rubrofusarin B (2), Rubrofusarin B]	13.9 ± 2.16 µM	moderate inhibitory activity
COc1cc(OC)c2c(O)c3c(=O)cc(C)oc3c(-c3c(OC)cc4cc5oc(C)cc(=O)c5c(O)c4c3OC)c2c1 [Aurasperone A (3), Aurasperone A]	4.9 ± 2.16 µM	–
COc1cc(OC)c2c(c1)cc(O)c1c(=O)cc(C)oc12 [Flavasperone (1), Flavasperone]	> 25 µM	didn’t show any inhibitory activity
COc1cc(OC)c2c(O)c3c(=O)cc(C)oc3c(-c3c(OC)cc4cc(O)c5c(=O)cc(C)oc5c4c3OC)c2c1 [Fonsecinone A (4), Fonsecinone A]	7.52 ± 2.16 µM	–
NC(=O)c1c[nH]c(Cc2ccccc2)cc1=O [Asperginin A (7), Aspernigrin A]	20.2 ± 3.03 µM	–

From PMC8432876, “Acetylcholine esterase inhibitory activity of green synthesized nanosilver by naphthopyrones isolated from marine-derived Aspergillus niger” (PLoS ONE, 2021)
